Measured values reported in US20070010566A1, “Thiazolidinones without basic nitrogen, their production and use as pharmaceutical agents” (priority 2005, published 2007).

Assays:
[1] = target: T1, Recombinant human Plk-1 (6×His) (Homo sapiens, UniProt P53350); experiment: PLK enzyme assay (33P-γ-ATP incorporation in biotinylated casein, SPA); type: biochemical; details: recombinant human Plk-1, casein substrate, 0.5 μmol of ATP, 90 minutes at room temperature; read-out: PLK-1 IC50 [nM] Inhibition
T1 construct: 6×His; made in house; host or cells: baculovirus-infected insect cells (Hi5)
Experimental: Recombinant human Plk-1 (6×His) was purified from baculovirus-infected insect cells (Hi5).
10 ng of (produced in a recombinant manner and purified) PLK enzyme is incubated for 90 minutes at room temperature with biotinylated casein and 33P-γ-ATP as a substrate in a volume of 15 μl in 384-well Greiner small-volume microtiter plates (final concentrations in the buffer: 660 ng/ml of PLK; 0.7 μmol of casein, 0.5 μmol of ATP incl. 400 nCi/ml of 33P-γ-ATP; 10 mmol of MgCl2, 1 mmol of MnCl2; 0.01% NP40; 1 mmol of DTT, protease inhibitors; 0.1 mmol of Na2VO3 in 50 mmol of HEPES, pH 7.5). To complete the reaction, 5 μl of stop solution (500 μmol of ATP; 500 mmol of EDTA; 1% Triton X100; 100 mg/ml of streptavidin-coated SPA beads in PBS) is added. After the microtiter plate is sealed by film, the beads are sedimented by centrifuging (10 minutes, 1500 rpm). The incorporation of 33P-γ-ATP in casein is intended as a measurement of enzyme activity by β-counting.
Test substances are used in various concentrations (0 μmol, as well as in the range of 0.01-30 μmol). The final concentration of the solvent dimethyl sulfoxide is 1.5% in all batches.

[2] = test system: human MaTu breast tumour cells; experiment: Proliferation assay (crystal violet staining); type: cell-based; details: 96 h, incubated for 4 days with test substance, read-out: Inhibition of the Tumour Cell Proliferation (MaTu) IC50
Experimental: Cultivated human MaTu breast tumour cells were flattened out at a density of 5000 cells/measuring point in a 96-well multititer plate in 200 μl of the corresponding growth medium. After 24 hours, the cells of one plate (zero-point plate) were colored with crystal violet (see below), while the medium of the other plates was replaced by fresh culture medium (200 μl), to which the test substances were added at various concentrations (0 μm, as well as in the range of 0.01-30 μm; the final concentration of the solvent dimethyl sulfoxide was 0.5%). The cells were incubated for 4 days in the presence of test substances. The cell proliferation was determined by coloring the cells with crystal violet: the cells were fixed by adding 20 μl/measuring point of an 11% glutaric aldehyde solution for 15 minutes at room temperature. After three washing cycles of the fixed cells with water, the plates were dried at room temperature. The cells were colored by adding 100 μl/measuring point of a 0.1% crystal violet solution (pH was set at 3 by adding acetic acid). […] The extinction was determined by photometry at a wavelength of 595 nm. The change of cell growth, in percent, was calculated by standardization of the measured values to the extinction values of the zero-point plate (=0%) and the extinction of the untreated (0 μm) cells (=100%).

T1 sequence (P53350 whole entry): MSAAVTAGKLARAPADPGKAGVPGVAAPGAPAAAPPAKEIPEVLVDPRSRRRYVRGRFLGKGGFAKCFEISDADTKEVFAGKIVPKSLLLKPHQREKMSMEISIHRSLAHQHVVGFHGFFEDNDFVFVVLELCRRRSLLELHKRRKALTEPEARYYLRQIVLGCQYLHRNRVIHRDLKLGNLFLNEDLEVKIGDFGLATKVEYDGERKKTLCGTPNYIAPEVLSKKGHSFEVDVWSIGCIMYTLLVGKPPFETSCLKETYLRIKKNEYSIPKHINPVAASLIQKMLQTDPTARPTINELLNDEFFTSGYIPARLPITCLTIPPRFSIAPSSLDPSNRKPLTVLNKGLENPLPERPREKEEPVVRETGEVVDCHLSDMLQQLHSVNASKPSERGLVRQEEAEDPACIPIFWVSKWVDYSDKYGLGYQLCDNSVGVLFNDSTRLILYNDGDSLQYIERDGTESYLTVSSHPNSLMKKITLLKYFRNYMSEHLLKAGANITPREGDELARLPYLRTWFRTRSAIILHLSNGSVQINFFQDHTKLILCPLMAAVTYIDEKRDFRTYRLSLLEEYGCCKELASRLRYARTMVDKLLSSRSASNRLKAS

SMILES | IC50 [1] | IC50 [2]
CCn1c(=C(C#N)C(=O)NCC#N)sc(=Cc2nc[nH]c2C)c1=O [Example 8] | 250 nM | 3600 nM
CCn1c(=C(C#N)C(=O)NCC(F)(F)F)sc(=Cc2nc[nH]c2C)c1=O [Example 9] | 230 nM | 4200 nM
